Measurements published in patent US10092620B2, “Uses of cyclic peptides for treating and preventing atherosclerosis” (THE SCRIPPS RESEARCH INSTITUTE, priority 2013, dated 2018).
“Also recorded” adds a separate entry of the source. Non-standard residues stand in square brackets, D forms with d. dNMeW = CN[C@H](Cc1c[nH]c2ccccc12)C(=O)O; dNMeE = CN[C@H](CCC(=O)O)C(=O)O

Tests used:
plasma HDL = assay: in vivo plasma HDL remodeling after intraperitoneal injection (Western blotting for mouse apoA-I); conditions: male mice (n=3), i.p. 18-24 mg/kg; FIG. 9
Protocol: To ascertain if the cyclic D,L-α-peptides function in vivo as modulators of HDL, we administered 1 to mice (BALB/c, n=3) via intraperitoneal injection (i.p.) at a dose of 20 mg/kg. After various times, blood was drawn and the plasma was analyzed by Western blotting to determine the levels of the HDL subpopulations.
In vivo plasma remodeling: Cyclic peptide c[wLwReQeR], 1, was dissolved in 10% sucrose, and sterile filtered through a 0.22-μm syringe filter before injection. Mice were fasted beginning 12 h before dosing, and continued the fast until after the 8-h time point blood draw was completed. Groups of three mice received a 20 mg/kg dose of the cyclic peptide via intraperitoneal injection (0.3 mL). Blood was drawn (30-60 μL) from the retro-orbital sinus into a heparinized capillary tube before dosing (0 min) and at different intervals from 30 min to 8 h after dosing. Plasma was isolated immediately from the whole blood by centrifugation at 5000 rpm for 10 min at 4° C., after which 10 μL of plasma were mixed with 90 μL of 50% sucrose, vortexed for 30 s, and stored at 4° C. until all time points had been collected (samples were stored from 0-8 h). Samples were then mixed with 20 μL of 6× native loading buffer (125 mM tris, pH 6.8, 0.02% bromophenol, 20% glycerol). 6 μL of these samples were loaded onto a 4-20% polyacrylamide gel. Gels were run at constant 80 V at 4° C. for 14 h using a Laemli buffer system (25 mM tris, 192 mM glycine, pH 8.3). Gels were then blotted onto nitrocellulose membranes (0.45 μm, Bio-Rad) at constant 30 V at 4° C. for 2 h using the Laemli buffer (no methanol). The membrane was blocked with 5% non-fat dry milk (NFDM) in TBST (20 mM tris, 150 mM NaCl, pH 7.6, 0.1% Tween-20) for 1 h at 23° C., and then washed once for 10 min with TBST. […]
In vivo plasma HDL remodeling activities of some of the peptides were also analyzed. […] Results shown in the figure were determined by Western blotting for mouse apoA-I.

HDL in human plasma = assay: pre-beta HDL ELISA assay: remodeling HDL in human plasma in vitro; format: biochemical
Protocol: First, various cyclic peptides, including the majority of compounds shown in FIG. 2, were assessed for activities for remodeling HDL in human plasma in vitro. Unlike western blot which was used to generate data shown in FIG. 2, here a pre-beta HDL ELISA assay was used to measure pre-beta HDL levels. Results from the assay are shown in Table 1, which lists the peptides in the order of their activities in remodeling HDL.

LDLr-null mice [1] = assay: in vivo efficacy study: plasma total cholesterol in high-fat-fed LDLr-null mice; parameters: species or system mouse; conditions: oral 35 mg/kg in drinking water, two weeks, female LDLr-null mice, high-fat diet; FIG. 7
From the text: Encouraged by the above findings, we carried out a 2-week pilot study to determine the effect of 1 on plasma total cholesterol levels. As an animal model, we employed the LDLr-null mouse, which has a human-like lipoprotein profile and is a leading animal model for studying hypercholesterolemia and atherogenesis. Considering that the abiotic nature of cyclic D,L-α-peptides renders them highly resistant to proteolysis, we chose to conduct this pilot in vivo efficacy study via the more convenient oral route of administration. Thus, the cyclic D,L-α-peptide was administered orally in the drinking water for two weeks (each mouse drank ˜0.5 mg peptide per day, or ˜25 mg/kg/day) to mice maintained on a high-fat diet.
(§1) In vivo efficacy study: LDL receptor-null (LDLr^−/−) mice on a C57BL/6J background were initially purchased from Jackson Laboratories (Bar Harbor, Me.) and were bred in house. The mice were weaned at 4 weeks of age and were fed ad libitum a standard chow diet (Harlan Teklad 7019) until they were 10-weeks old, when they were switched to a high-fat Western diet (WD) containing 15.8% (wt/wt) fat, 1.25% (wt/wt) cholesterol, and no cholate (Harlan Teklad 94059). At the time that the WD was started, the test cyclic peptide was added to the drinking water at a high dose of 180 μM (200 μg/mL) or a low dose of 18 μM (20 μg/mL) and the mice (female, n=8 per dosing group) were continued on WD for 10 weeks. The lyophilized peptide was easily dissolved in PBS (pH 7.4) containing 1% sucrose, resulting in a clear solution. The drinking water solution was replaced with fresh solution every day. A control group of eight mice (female, n=8) were fed WD with vehicle (PBS with 1% sucrose) drinking water. The mice consumed approximately 2.5 mL of water per day per mouse, and there was no significant difference in water or food consumption between groups.
Effect of cyclic peptides on plasma total cholesterol: The mice were bled after two weeks of treatment and at the time of harvest (10 weeks). The blood (200 μL) was collected after an overnight fast (14-16 h) by retro-orbital puncture into a heparinized capillary tube at two weeks, or by cardiac puncture into EDTA anti-coagulant coated tubes at the time of harvest (10 weeks). Plasma was separated from whole blood immediately by centrifugation of the blood samples at 5000 rpm for 10 min at 4° C., and was then stored at −80° C. Plasma total cholesterol (TC) was measured using an enzymatic colorimetric method kit (Amplex® red cholesterol assay kit, No. A12216, Life Technologies) according to the manufacturer's instructions.
In addition, several peptides were administered orally to mice at a 35 mg/kg dose (unless otherwise noted) in the drinking water for two weeks. The female LDLr-null mice maintained on a high-fat diet were provided with peptide-treated 1% sucrose/PBS or 1% sucrose/PBS alone as the drinking water ad libitum. Cholesterol levels were then determined. The data are shown in FIG. 7 as a scatter plot along with mean±SD. p values were determined by the one-way ANOVA test with a post hoc Tukey-Kramer test.

LDLr-null mice [2] = assay: evaluation of atherosclerosis: whole aorta lesion area and aortic sinus lesion volume; format: in vivo, mouse; conditions: oral 35 mg/kg in drinking water, 10 weeks, female LDLr-null mice; FIG. 8; 35 mg/kg
From the text: as §1
Evaluation of atherosclerosis: Atherosclerotic lesion severity was assessed in the aortae as previously described in Mullick et al., J. Clin. Invest. 115, 3149-3156, 2005. Briefly, at euthanasia, animals were perfused with PBS, followed by 4% formaldehyde (10% UltraPure EM Grade from Polysciences diluted in PBS, pH 7.2). For en face analysis, the entire mouse aorta was dissected from the proximal ascending aorta to the bifurcation of the iliac artery by using a dissecting microscope. Adventitial fat was removed, and the aorta was opened longitudinally, pinned flat onto black dissecting wax, stained with Sudan IV, and photographed at a fixed magnification. The photographs were digitized, and total aortic areas and lesion areas were calculated by using Adobe Photoshop version CS4, Chromatica V, and NIH Scion Image software (http://rsb.info.nih.gov/nih-image/Default.html). The results were reported as a percentage of the total aortic area that contained lesions.
As a second assessment of atherosclerosis, lesions of the aortic root (heart sinus) were analyzed. Utilizing stereological principles, lesion volume was estimated across a fixed distance of the aortic sinus. […] Lesion areas found only within the valve cusp were measured. […] Lesion volume was calculated from an integration of the measured cross-sectional areas. […]
Other than their in vivo cholesterol reducing activities, several peptides were also examined for ability to inhibit development of atherosclerotic legions in vivo. […] All charts in the figure are shown as a scatter plot along with mean±SD. p values were determined by the one-way ANOVA test with a post hoc Tukey-Kramer test.

Substance: 82 (cyclo(WIW[dW]K[dH]K[dH]); SMILES CC[C@H](C)[C@@H]1NC(=O)[C@H](Cc2c[nH]c3ccccc23)NC(=O)[C@@H](Cc2c[nH]cn2)NC(=O)[C@H](CCCCN)NC(=O)[C@@H](Cc2c[nH]cn2)NC(=O)[C@H](CCCCN)NC(=O)[C@@H](Cc2c[nH]c3ccccc23)NC(=O)[C@H](Cc2c[nH]c3ccccc23)NC1=O) [compound 82]
- in vivo plasma HDL remodeling, level of lipid-poor pre-beta particles (plasma HDL): able to remodel plasma HDL to increase the level of lipid-poor pre-beta particles

Substance: 53 (cyclo([dW]L[dW]K[dH]S[dH]K); SMILES CC(C)C[C@@H]1NC(=O)[C@@H](Cc2c[nH]c3ccccc23)NC(=O)[C@H](CCCCN)NC(=O)[C@@H](Cc2c[nH]cn2)NC(=O)[C@H](CO)NC(=O)[C@@H](Cc2c[nH]cn2)NC(=O)[C@H](CCCCN)NC(=O)[C@@H](Cc2c[nH]c3ccccc23)NC1=O) [compound 53]
- in vivo plasma HDL remodeling, level of lipid-poor pre-beta particles (plasma HDL): able to remodel plasma HDL to increase the level of lipid-poor pre-beta particles
- Pre-beta HDL generated (normalized level) (HDL in human plasma; pre-beta HDL ELISA): 0.79

Substance: c[(Me)wLwR(Me)eQeR] (cyclo([dNMeW]L[dW]R[dNMeE]Q[dE]R)) [SEQ ID NO:46]
- plasma cholesterol levels (in words) (LDLr-null mice [1]): negatively affect
- activity in generating pre-beta HDL (in words) (HDL in human plasma): negatively affect
- development of atherosclerotic lesions: whole aorta lesion areas and aortic sinus lesion volumes (in words) (LDLr-null mice [2]): remains very effective as the parent compound; also recorded: similarly effective as the parent compound in preventing the development of atherosclerotic lesions
